{"source": "patent US20230079819A1", "about": "“COMPOUNDS AND USES THEREOF” (Foghorn Therapeutics Inc., priority 2019, published 2023)", "key": {"BRM": {"biological_target": "T1, BRM (Homo sapiens, UniProt P51531)", "T1 construct": "made in house; host or cells: High Five insect cells", "T1 sequence (P51531 whole entry)": "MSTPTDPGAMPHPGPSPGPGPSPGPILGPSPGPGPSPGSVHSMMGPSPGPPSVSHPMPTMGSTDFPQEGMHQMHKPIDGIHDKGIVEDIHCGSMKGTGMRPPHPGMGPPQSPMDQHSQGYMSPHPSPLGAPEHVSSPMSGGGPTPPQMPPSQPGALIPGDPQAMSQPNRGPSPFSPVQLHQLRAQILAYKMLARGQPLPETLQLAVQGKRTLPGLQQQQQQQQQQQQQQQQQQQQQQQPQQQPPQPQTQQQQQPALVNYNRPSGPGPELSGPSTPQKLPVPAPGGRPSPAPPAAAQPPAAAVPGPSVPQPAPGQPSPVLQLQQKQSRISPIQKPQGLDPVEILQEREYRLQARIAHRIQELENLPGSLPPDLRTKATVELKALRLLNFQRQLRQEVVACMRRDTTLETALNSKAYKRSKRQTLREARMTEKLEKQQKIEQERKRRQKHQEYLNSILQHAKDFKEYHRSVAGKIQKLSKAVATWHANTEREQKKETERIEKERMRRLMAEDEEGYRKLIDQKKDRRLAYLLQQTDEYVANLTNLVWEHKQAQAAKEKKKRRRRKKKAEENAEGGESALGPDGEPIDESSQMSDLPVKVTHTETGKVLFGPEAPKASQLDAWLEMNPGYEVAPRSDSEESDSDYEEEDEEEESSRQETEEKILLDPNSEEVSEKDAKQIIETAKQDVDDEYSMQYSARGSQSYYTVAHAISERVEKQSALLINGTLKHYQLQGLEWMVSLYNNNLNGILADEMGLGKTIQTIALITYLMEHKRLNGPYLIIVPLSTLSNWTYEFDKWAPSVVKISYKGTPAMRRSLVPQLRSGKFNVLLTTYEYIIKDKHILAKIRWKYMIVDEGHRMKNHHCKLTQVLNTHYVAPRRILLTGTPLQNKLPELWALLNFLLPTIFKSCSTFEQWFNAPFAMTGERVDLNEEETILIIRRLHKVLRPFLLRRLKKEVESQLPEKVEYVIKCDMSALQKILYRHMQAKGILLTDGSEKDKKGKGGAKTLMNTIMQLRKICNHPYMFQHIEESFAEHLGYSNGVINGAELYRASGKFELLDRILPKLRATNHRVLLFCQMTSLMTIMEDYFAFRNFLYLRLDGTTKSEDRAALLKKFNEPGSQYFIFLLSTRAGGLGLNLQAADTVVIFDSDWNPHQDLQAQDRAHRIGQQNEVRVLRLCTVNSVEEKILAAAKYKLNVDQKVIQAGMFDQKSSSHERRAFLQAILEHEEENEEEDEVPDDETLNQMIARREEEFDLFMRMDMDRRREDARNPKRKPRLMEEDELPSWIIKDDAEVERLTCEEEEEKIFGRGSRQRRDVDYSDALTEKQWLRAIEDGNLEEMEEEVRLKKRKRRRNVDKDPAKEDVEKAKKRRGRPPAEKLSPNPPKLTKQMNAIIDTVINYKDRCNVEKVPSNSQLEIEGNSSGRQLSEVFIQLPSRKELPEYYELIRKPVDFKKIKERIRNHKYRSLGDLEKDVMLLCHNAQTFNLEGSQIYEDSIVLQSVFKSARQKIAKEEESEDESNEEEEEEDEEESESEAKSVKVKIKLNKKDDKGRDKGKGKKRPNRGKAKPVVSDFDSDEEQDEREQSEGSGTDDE", "experiment": "ATPase catalytic activity of BRM, ADP-Glo in vitro biochemical assay", "details": "ATPase catalytic activity, 30 nM BRM, 400 μM ATP, read-out: BRM IP50"}, "BRG-1": {"biological_target": "T2, BRG-1 (Homo sapiens, UniProt P51532)", "T2 construct": "made in house; host or cells: High Five insect cells", "T2 sequence (P51532 whole entry)": "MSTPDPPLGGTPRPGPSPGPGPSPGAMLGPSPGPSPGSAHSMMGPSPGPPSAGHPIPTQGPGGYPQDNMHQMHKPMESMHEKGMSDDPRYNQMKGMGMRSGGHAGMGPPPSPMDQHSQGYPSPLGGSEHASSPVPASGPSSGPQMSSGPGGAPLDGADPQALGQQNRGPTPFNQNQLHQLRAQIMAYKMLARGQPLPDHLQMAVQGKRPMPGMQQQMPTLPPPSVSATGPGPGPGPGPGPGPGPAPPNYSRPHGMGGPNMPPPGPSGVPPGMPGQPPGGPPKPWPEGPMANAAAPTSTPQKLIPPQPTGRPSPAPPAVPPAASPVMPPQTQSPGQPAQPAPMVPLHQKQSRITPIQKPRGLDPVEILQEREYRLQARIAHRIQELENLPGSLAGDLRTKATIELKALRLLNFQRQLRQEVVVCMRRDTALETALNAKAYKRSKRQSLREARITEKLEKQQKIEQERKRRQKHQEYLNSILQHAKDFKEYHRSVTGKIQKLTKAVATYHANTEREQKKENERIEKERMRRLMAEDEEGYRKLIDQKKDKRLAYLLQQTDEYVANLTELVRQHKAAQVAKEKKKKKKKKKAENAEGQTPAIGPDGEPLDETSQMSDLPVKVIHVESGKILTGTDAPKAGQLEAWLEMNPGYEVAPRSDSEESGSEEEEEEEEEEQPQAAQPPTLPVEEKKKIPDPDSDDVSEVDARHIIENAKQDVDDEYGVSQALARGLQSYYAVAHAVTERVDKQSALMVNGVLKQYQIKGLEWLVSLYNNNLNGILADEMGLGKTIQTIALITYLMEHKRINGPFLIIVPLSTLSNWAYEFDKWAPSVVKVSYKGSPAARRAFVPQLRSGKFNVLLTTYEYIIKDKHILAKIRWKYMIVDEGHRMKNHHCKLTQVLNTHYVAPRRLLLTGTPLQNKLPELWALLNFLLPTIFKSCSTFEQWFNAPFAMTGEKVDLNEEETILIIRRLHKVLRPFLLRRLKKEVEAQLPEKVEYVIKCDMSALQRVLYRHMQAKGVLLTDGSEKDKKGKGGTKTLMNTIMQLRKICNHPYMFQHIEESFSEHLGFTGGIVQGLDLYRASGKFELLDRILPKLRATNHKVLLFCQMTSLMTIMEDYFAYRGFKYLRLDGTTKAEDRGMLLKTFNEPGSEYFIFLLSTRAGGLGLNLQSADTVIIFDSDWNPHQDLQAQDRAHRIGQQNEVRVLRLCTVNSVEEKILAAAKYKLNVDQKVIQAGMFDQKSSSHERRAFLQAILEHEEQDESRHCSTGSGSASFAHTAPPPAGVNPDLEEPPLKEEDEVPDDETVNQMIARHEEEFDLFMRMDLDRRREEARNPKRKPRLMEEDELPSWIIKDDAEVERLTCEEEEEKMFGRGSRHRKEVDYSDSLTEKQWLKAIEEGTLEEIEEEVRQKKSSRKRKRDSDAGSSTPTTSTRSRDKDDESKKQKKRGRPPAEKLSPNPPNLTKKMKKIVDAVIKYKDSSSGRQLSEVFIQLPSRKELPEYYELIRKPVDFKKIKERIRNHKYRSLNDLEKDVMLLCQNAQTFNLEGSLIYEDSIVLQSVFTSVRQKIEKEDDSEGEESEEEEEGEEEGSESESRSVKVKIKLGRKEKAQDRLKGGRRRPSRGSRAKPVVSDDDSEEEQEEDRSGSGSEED", "experiment": "ATPase catalytic activity of BRG-1, ADP-Glo in vitro biochemical assay", "details": "ATPase catalytic activity, 30 nM BRG-1, 400 μM ATP, read-out: BRG1 IP50"}}}
{"compound": "COC[C@H](NC(=O)c1ccn(S(C)(=O)=O)c1)C(=O)Nc1nc(-c2cccc(N3CC[C@@H](C(F)F)C3)n2)cs1", "note": "[Compound 691]", "values": [{"measurement": "IC50", "setting": "BRM", "value": "> 10", "unit": "nM"}, {"measurement": "IC50", "setting": "BRG-1", "value": "> 100", "unit": "nM"}]}
{"compound": "CC(C)(C)n1ccc(C(=O)NCC(=O)Nc2nc(-c3cccc(N4CCn5ncnc5C4)n3)cs2)c1", "note": "[Compound 692]", "values": [{"measurement": "IC50", "setting": "BRM", "value": "> 10", "unit": "nM"}, {"measurement": "IC50", "setting": "BRG-1", "value": "> 10", "unit": "nM"}]}
{"compound": "C[C@@H]1CN(c2cncc(-c3csc(NC(=O)CNC(=O)c4ccn(S(C)(=O)=O)c4)n3)n2)C[C@H](C)O1", "note": "[Compound 693]", "values": [{"measurement": "IC50", "setting": "BRM", "value": "< 10", "unit": "nM"}, {"measurement": "IC50", "setting": "BRG-1", "value": "> 10", "unit": "nM"}]}
{"compound": "COC[C@H](NC(=O)c1ccn(S(C)(=O)=O)c1)C(=O)Nc1nc(-c2cc(F)c3c(c2)OCO3)cs1", "note": "[Compound 695]", "values": [{"measurement": "IC50", "setting": "BRM", "value": "< 10", "unit": "nM"}, {"measurement": "IC50", "setting": "BRG-1", "value": "< 10", "unit": "nM"}]}
{"compound": "Cn1ccc(C2CCN(c3cccc(-c4csc(NC(=O)CNC(=O)c5ccn(C(C)(C)C)c5)n4)n3)CC2)n1", "note": "[Compound 696]", "values": [{"measurement": "IC50", "setting": "BRM", "value": "> 100", "unit": "nM"}, {"measurement": "IC50", "setting": "BRG-1", "value": "> 100", "unit": "nM"}]}
{"compound": "CC(C)(C)n1ccc(C(=O)NCC(=O)Nc2nc(-c3cccc(N4CCCC(OC(F)F)C4)n3)cs2)c1", "note": "(stereo not shown) [Compound 697]", "values": [{"measurement": "IC50", "setting": "BRM", "value": "> 10", "unit": "nM"}, {"measurement": "IC50", "setting": "BRG-1", "value": "> 10", "unit": "nM"}]}
{"compound": "CS(=O)(=O)n1ccc(C(=O)NCC(=O)Nc2nc(-c3cccc(N4CC[C@H](C(F)F)C4)n3)cs2)c1", "note": "[Compound 698]", "values": [{"measurement": "IC50", "setting": "BRM", "value": "> 10", "unit": "nM"}, {"measurement": "IC50", "setting": "BRG-1", "value": "> 10", "unit": "nM"}]}
{"compound": "COC[C@H](NC(=O)c1ccn(S(C)(=O)=O)c1)C(=O)Nc1nc(-c2cccc(N3CC[C@H](C(F)F)C3)n2)cs1", "note": "[Compound 699]", "values": [{"measurement": "IC50", "setting": "BRM", "value": "> 10", "unit": "nM"}, {"measurement": "IC50", "setting": "BRG-1", "value": "> 10", "unit": "nM"}]}
{"compound": "COc1cc(F)cc(-c2csc(NC(=O)CNC(=O)c3ccn(S(C)(=O)=O)c3)n2)c1", "note": "[Compound 701]", "values": [{"measurement": "IC50", "setting": "BRM", "value": "< 10", "unit": "nM"}, {"measurement": "IC50", "setting": "BRG-1", "value": "> 10", "unit": "nM"}]}
{"compound": "Cc1nc(C2CCCN(c3cccc(-c4csc(NC(=O)CNC(=O)c5ccn(C(C)(C)C)c5)n4)n3)C2)no1", "note": "(stereo not shown) [Compound 704]", "values": [{"measurement": "IC50", "setting": "BRM", "value": "> 10", "unit": "nM"}, {"measurement": "IC50", "setting": "BRG-1", "value": "> 10", "unit": "nM"}]}
{"compound": "C[C@@H]1CN(c2cncc(-c3csc(NC(=O)CNC(=O)c4ccn(C(C)(C)C)c4)n3)n2)C[C@H](C)O1", "note": "[Compound 705]", "values": [{"measurement": "IC50", "setting": "BRM", "value": "> 10", "unit": "nM"}, {"measurement": "IC50", "setting": "BRG-1", "value": "> 10", "unit": "nM"}]}
{"compound": "Cn1cc(N2CCN(c3cccc(-c4csc(NC(=O)CNC(=O)c5ccn(C(C)(C)C)c5)n4)n3)CC2)cn1", "note": "[Compound 706]", "values": [{"measurement": "IC50", "setting": "BRM", "value": "> 100", "unit": "nM"}, {"measurement": "IC50", "setting": "BRG-1", "value": "> 100", "unit": "nM"}]}
{"compound": "COC[C@H](NC(=O)c1ccn(S(C)(=O)=O)c1)C(=O)Nc1nc(-c2cncc(N3C[C@@H](C)O[C@@H](C)C3)n2)cs1", "note": "[Compound 707]", "values": [{"measurement": "IC50", "setting": "BRM", "value": "> 10", "unit": "nM"}, {"measurement": "IC50", "setting": "BRG-1", "value": "> 10", "unit": "nM"}]}
{"compound": "COC[C@H](NC(=O)c1ccn(S(C)(=O)=O)c1)C(=O)Nc1nc(-c2cc(F)c3c(c2)CCO3)cs1", "note": "[Compound 708]", "values": [{"measurement": "IC50", "setting": "BRM", "value": "< 10", "unit": "nM"}, {"measurement": "IC50", "setting": "BRG-1", "value": "< 10", "unit": "nM"}]}
{"compound": "CC(C)(C)n1ccc(C(=O)NCC(=O)Nc2nc(-c3cccc(N4CCCC(n5cncn5)C4)n3)cs2)c1", "note": "(stereo not shown) [Compound 709]", "values": [{"measurement": "IC50", "setting": "BRM", "value": "> 10", "unit": "nM"}, {"measurement": "IC50", "setting": "BRG-1", "value": "> 10", "unit": "nM"}]}
{"compound": "COC[C@H](NC(=O)c1ccn(S(C)(=O)=O)c1)C(=O)Nc1nc(-c2cccc(OC)c2F)cs1", "note": "[Compound 710]", "values": [{"measurement": "IC50", "setting": "BRM", "value": "> 10", "unit": "nM"}, {"measurement": "IC50", "setting": "BRG-1", "value": "> 10", "unit": "nM"}]}
{"compound": "COc1cccc(-c2csc(NC(=O)CNC(=O)c3ccn(S(C)(=O)=O)c3)n2)c1F", "note": "[Compound 711]", "values": [{"measurement": "IC50", "setting": "BRM", "value": "> 10", "unit": "nM"}, {"measurement": "IC50", "setting": "BRG-1", "value": "> 10", "unit": "nM"}]}
{"compound": "COC[C@H](NC(=O)c1ccn(S(C)(=O)=O)c1)C(=O)Nc1nc(-c2cccc(C#N)c2)cs1", "note": "[Compound 712]", "values": [{"measurement": "IC50", "setting": "BRM", "value": "> 10", "unit": "nM"}, {"measurement": "IC50", "setting": "BRG-1", "value": "> 10", "unit": "nM"}]}
{"compound": "COC[C@H](NC(=O)c1ccn(S(C)(=O)=O)c1)C(=O)Nc1nc(-c2cc(F)c3c(c2)N(C)CC3)cs1", "note": "[Compound 713]", "values": [{"measurement": "IC50", "setting": "BRM", "value": "< 10", "unit": "nM"}, {"measurement": "IC50", "setting": "BRG-1", "value": "< 10", "unit": "nM"}]}
{"compound": "COC[C@H](NC(=O)c1ccn(S(C)(=O)=O)c1)C(=O)Nc1nc(-c2cc(F)cc(C#N)c2)cs1", "note": "[Compound 714]", "values": [{"measurement": "IC50", "setting": "BRM", "value": "> 10", "unit": "nM"}, {"measurement": "IC50", "setting": "BRG-1", "value": "> 10", "unit": "nM"}]}
{"compound": "CS(=O)(=O)n1ccc(C(=O)NCC(=O)Nc2nc(-c3cc(F)cc(C#N)c3)cs2)c1", "note": "[Compound 715]", "values": [{"measurement": "IC50", "setting": "BRM", "value": "> 10", "unit": "nM"}, {"measurement": "IC50", "setting": "BRG-1", "value": "> 10", "unit": "nM"}]}
{"compound": "COC[C@H](NC(=O)c1ccn(S(C)(=O)=O)c1)C(=O)Nc1nc(-c2ccc(F)c(OC)c2)cs1", "note": "[Compound 716]", "values": [{"measurement": "IC50", "setting": "BRM", "value": "> 10", "unit": "nM"}, {"measurement": "IC50", "setting": "BRG-1", "value": "> 10", "unit": "nM"}]}
{"compound": "CS(=O)(=O)n1ccc(C(=O)NCC(=O)Nc2nc(-c3cccc([C@H]4[C@@H]5COC[C@@H]54)c3)cs2)c1", "note": "[Compound 717]", "values": [{"measurement": "IC50", "setting": "BRM", "value": "> 10", "unit": "nM"}, {"measurement": "IC50", "setting": "BRG-1", "value": "> 10", "unit": "nM"}]}
